Measured values published in article PMC6409085, “Three odorant-binding proteins are involved in the behavioral response of Sogatella furcifera to rice plant volatiles” (PeerJ, 2019).
pIC50: −log10 of the molar value. Where “and” joins values, the source holds several entries; their conditions need not be identical. Equal entries are not always repeated.

Assays:
Test in all cases: biochemical
Format in all cases: binding
SfurOBP11 = SfurOBP11 (Sogatella furcifera, UniProt V5T6E3)
How it was run: (§1)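 Protein 2.0 µM + 1-NPN 2.0 µM, 50 mM Tris-HCl pH 7.4; competitor odorants 2, 4 … 20 µM final; read 2 min post-addition, ex 337/em 390–490 nm; n=3. K1-NPN from 1-NPN titration/Scatchard; Ki from IC50 corrected for free 1-NPN.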

SfurOBP1 = SfurOBP1 (Sogatella furcifera, UniProt V5T8N5); details: for Fluorescence competitive binding assay, fluorescence intensity: OBP1, three replicate columns
Sequence of SfurOBP1 (V5T8N5 entry or part of it): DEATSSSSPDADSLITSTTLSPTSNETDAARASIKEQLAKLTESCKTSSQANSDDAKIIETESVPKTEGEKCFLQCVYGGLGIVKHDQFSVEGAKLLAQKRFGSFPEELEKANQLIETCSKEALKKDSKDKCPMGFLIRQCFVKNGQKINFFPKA
How it was run: as §1

SfurOBP2 = SfurOBP2 (Sogatella furcifera, UniProt V5T759)
Sequence of SfurOBP2 (V5T759 entry or part of it): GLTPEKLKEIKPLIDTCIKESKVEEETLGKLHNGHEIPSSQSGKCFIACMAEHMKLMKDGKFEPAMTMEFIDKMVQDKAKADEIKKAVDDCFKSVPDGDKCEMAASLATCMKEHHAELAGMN
How it was run: as §1

SfurOBP3 = SfurOBP3 (Sogatella furcifera, UniProt V5T818); details: for Fluorescence competitive binding assay, fluorescence intensity: OBP3, three replicate columns
Sequence of SfurOBP3 (V5T818 entry or part of it): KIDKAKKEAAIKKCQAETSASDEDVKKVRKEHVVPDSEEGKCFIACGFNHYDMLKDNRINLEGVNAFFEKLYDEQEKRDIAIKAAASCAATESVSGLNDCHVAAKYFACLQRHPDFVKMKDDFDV
How it was run: as §1

Sequence of SfurOBP11 (V5T6E3 entry or part of it): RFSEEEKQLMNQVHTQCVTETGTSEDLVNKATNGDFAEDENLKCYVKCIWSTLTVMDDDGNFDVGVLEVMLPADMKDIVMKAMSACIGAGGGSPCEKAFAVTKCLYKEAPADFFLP

## CCCCCCCCCCCCO [lauryl alcohol]
SfurOBP11; SfurOBP11, protein and 1-NPN both 2.0 µM, competitor 2-20 µM, read-out: IC50
  pIC50: < 4.70
SfurOBP11; ligand concentration 2, replicate 1
  Fluorescence intensity, fluorescence competitive binding assay, OBP11: 24217
SfurOBP11; ligand concentration 2, replicate 2
  Fluorescence intensity, fluorescence competitive binding assay, OBP11: 24290
SfurOBP11; ligand concentration 2, replicate 3
  Fluorescence intensity, fluorescence competitive binding assay, OBP11: 24783
SfurOBP11; ligand concentration 4, replicate 1
  Fluorescence intensity, fluorescence competitive binding assay, OBP11: 24290
SfurOBP11; ligand concentration 4, replicate 2
  Fluorescence intensity, fluorescence competitive binding assay, OBP11: 24322
SfurOBP11; ligand concentration 4, replicate 3
  Fluorescence intensity, fluorescence competitive binding assay, OBP11: 23442
SfurOBP11; ligand concentration 6, replicate 1
  Fluorescence intensity, fluorescence competitive binding assay, OBP11: 24952
SfurOBP11; ligand concentration 6, replicate 2
  Fluorescence intensity, fluorescence competitive binding assay, OBP11: 22901
SfurOBP11; ligand concentration 6, replicate 3
  Fluorescence intensity, fluorescence competitive binding assay, OBP11: 24534
SfurOBP11; ligand concentration 8, replicate 1
  Fluorescence intensity, fluorescence competitive binding assay, OBP11: 24078
SfurOBP11; ligand concentration 8, replicate 2
  Fluorescence intensity, fluorescence competitive binding assay, OBP11: 21947
SfurOBP11; ligand concentration 8, replicate 3
  Fluorescence intensity, fluorescence competitive binding assay, OBP11: 24599
SfurOBP11; ligand concentration 10, replicate 1
  Fluorescence intensity, fluorescence competitive binding assay, OBP11: 22957
SfurOBP11; ligand concentration 10, replicate 2
  Fluorescence intensity, fluorescence competitive binding assay, OBP11: 24005
SfurOBP11; ligand concentration 10, replicate 3
  Fluorescence intensity, fluorescence competitive binding assay, OBP11: 23087
SfurOBP11; ligand concentration 12, replicate 1
  Fluorescence intensity, fluorescence competitive binding assay, OBP11: 20961
SfurOBP11; ligand concentration 12, replicate 2
  Fluorescence intensity, fluorescence competitive binding assay, OBP11: 21769
SfurOBP11; ligand concentration 12, replicate 3
  Fluorescence intensity, fluorescence competitive binding assay, OBP11: 22579
SfurOBP11; ligand concentration 14, replicate 1
  Fluorescence intensity, fluorescence competitive binding assay, OBP11: 19736
SfurOBP11; ligand concentration 14, replicate 2
  Fluorescence intensity, fluorescence competitive binding assay, OBP11: 20687
SfurOBP11; ligand concentration 14, replicate 3
  Fluorescence intensity, fluorescence competitive binding assay, OBP11: 20422
SfurOBP11; ligand concentration 16, replicate 1
  Fluorescence intensity, fluorescence competitive binding assay, OBP11: 16888
SfurOBP11; ligand concentration 16, replicate 2
  Fluorescence intensity, fluorescence competitive binding assay, OBP11: 20499
SfurOBP11; ligand concentration 16, replicate 3
  Fluorescence intensity, fluorescence competitive binding assay, OBP11: 18999
SfurOBP11; ligand concentration 18, replicate 1
  Fluorescence intensity, fluorescence competitive binding assay, OBP11: 18870
SfurOBP11; ligand concentration 18, replicate 2
  Fluorescence intensity, fluorescence competitive binding assay, OBP11: 19005
SfurOBP11; ligand concentration 18, replicate 3
  Fluorescence intensity, fluorescence competitive binding assay, OBP11: 19199
SfurOBP11; ligand concentration 20, replicate 1
  Fluorescence intensity, fluorescence competitive binding assay, OBP11: 20952
SfurOBP11; ligand concentration 20, replicate 2
  Fluorescence intensity, fluorescence competitive binding assay, OBP11: 19127
SfurOBP11; ligand concentration 20, replicate 3
  Fluorescence intensity, fluorescence competitive binding assay, OBP11: 18042
SfurOBP1; ligand concentration 2 (μM)
  Fluorescence competitive binding assay, fluorescence intensity: 7624 and 6465 and 8545
SfurOBP1; ligand concentration 4 (μM)
  Fluorescence competitive binding assay, fluorescence intensity: 7313 and 7318 and 7353
SfurOBP1; ligand concentration 6 (μM)
  Fluorescence competitive binding assay, fluorescence intensity: 7143 and 7275 and 7922
SfurOBP1; ligand concentration 8 (μM)
  Fluorescence competitive binding assay, fluorescence intensity: 7358 and 7784 and 8873
SfurOBP1; ligand concentration 10 (μM)
  Fluorescence competitive binding assay, fluorescence intensity: 7141 and 7560 and 7926
SfurOBP1; ligand concentration 12 (μM)
  Fluorescence competitive binding assay, fluorescence intensity: 7810 and 7463 and 8566
SfurOBP1; ligand concentration 14 (μM)
  Fluorescence competitive binding assay, fluorescence intensity: 7736 and 8413 and 7236
SfurOBP1; ligand concentration 16 (μM)
  Fluorescence competitive binding assay, fluorescence intensity: 8777 and 6935 and 7055
SfurOBP1; ligand concentration 18 (μM)
  Fluorescence competitive binding assay, fluorescence intensity: 9193 and 9578 and 9152
SfurOBP1; ligand concentration 20 (μM)
  Fluorescence competitive binding assay, fluorescence intensity: 11048 and 9816 and 8594
SfurOBP1; SfurOBP1, protein and 1-NPN both 2.0 µM, competitor 2-20 µM, read-out: IC50
  pIC50: < 4.70
SfurOBP2; SfurOBP2, protein and 1-NPN both 2.0 µM, competitor 2-20 µM, read-out: IC50
  pIC50: < 4.70
SfurOBP2; ligand concentration 2 (unit not given), replicate column 1 of 3
  Fluorescence competitive binding assay, OBP2 (raw fluorescence reading): 17977
SfurOBP2; ligand concentration 2 (unit not given), replicate column 2 of 3
  Fluorescence competitive binding assay, OBP2 (raw fluorescence reading): 18256
SfurOBP2; ligand concentration 2 (unit not given), replicate column 3 of 3
  Fluorescence competitive binding assay, OBP2 (raw fluorescence reading): 18222
SfurOBP2; ligand concentration 4 (unit not given), replicate column 1 of 3
  Fluorescence competitive binding assay, OBP2 (raw fluorescence reading): 21586
SfurOBP2; ligand concentration 4 (unit not given), replicate column 2 of 3
  Fluorescence competitive binding assay, OBP2 (raw fluorescence reading): 19639
SfurOBP2; ligand concentration 4 (unit not given), replicate column 3 of 3
  Fluorescence competitive binding assay, OBP2 (raw fluorescence reading): 16260
SfurOBP2; ligand concentration 6 (unit not given), replicate column 1 of 3
  Fluorescence competitive binding assay, OBP2 (raw fluorescence reading): 18208
SfurOBP2; ligand concentration 6 (unit not given), replicate column 2 of 3
  Fluorescence competitive binding assay, OBP2 (raw fluorescence reading): 18064
SfurOBP2; ligand concentration 6 (unit not given), replicate column 3 of 3
  Fluorescence competitive binding assay, OBP2 (raw fluorescence reading): 15812
SfurOBP2; ligand concentration 8 (unit not given), replicate column 1 of 3
  Fluorescence competitive binding assay, OBP2 (raw fluorescence reading): 16946
SfurOBP2; ligand concentration 8 (unit not given), replicate column 2 of 3
  Fluorescence competitive binding assay, OBP2 (raw fluorescence reading): 12445
SfurOBP2; ligand concentration 8 (unit not given), replicate column 3 of 3
  Fluorescence competitive binding assay, OBP2 (raw fluorescence reading): 14953
SfurOBP2; ligand concentration 10 (unit not given), replicate column 1 of 3
  Fluorescence competitive binding assay, OBP2 (raw fluorescence reading): 16387
SfurOBP2; ligand concentration 10 (unit not given), replicate column 2 of 3
  Fluorescence competitive binding assay, OBP2 (raw fluorescence reading): 15939
SfurOBP2; ligand concentration 10 (unit not given), replicate column 3 of 3
  Fluorescence competitive binding assay, OBP2 (raw fluorescence reading): 15218
SfurOBP2; ligand concentration 12 (unit not given), replicate column 1 of 3
  Fluorescence competitive binding assay, OBP2 (raw fluorescence reading): 16171
SfurOBP2; ligand concentration 12 (unit not given), replicate column 2 of 3
  Fluorescence competitive binding assay, OBP2 (raw fluorescence reading): 15043
SfurOBP2; ligand concentration 12 (unit not given), replicate column 3 of 3
  Fluorescence competitive binding assay, OBP2 (raw fluorescence reading): 14391
SfurOBP2; ligand concentration 14 (unit not given), replicate column 1 of 3
  Fluorescence competitive binding assay, OBP2 (raw fluorescence reading): 14286
SfurOBP2; ligand concentration 14 (unit not given), replicate column 2 of 3
  Fluorescence competitive binding assay, OBP2 (raw fluorescence reading): 13952
SfurOBP2; ligand concentration 14 (unit not given), replicate column 3 of 3
  Fluorescence competitive binding assay, OBP2 (raw fluorescence reading): 14683
SfurOBP2; ligand concentration 16 (unit not given), replicate column 1 of 3
  Fluorescence competitive binding assay, OBP2 (raw fluorescence reading): 13014
SfurOBP2; ligand concentration 16 (unit not given), replicate column 2 of 3
  Fluorescence competitive binding assay, OBP2 (raw fluorescence reading): 12749
SfurOBP2; ligand concentration 16 (unit not given), replicate column 3 of 3
  Fluorescence competitive binding assay, OBP2 (raw fluorescence reading): 13096
SfurOBP2; ligand concentration 18 (unit not given), replicate column 1 of 3
  Fluorescence competitive binding assay, OBP2 (raw fluorescence reading): 12746
SfurOBP2; ligand concentration 18 (unit not given), replicate column 2 of 3
  Fluorescence competitive binding assay, OBP2 (raw fluorescence reading): 12759
SfurOBP2; ligand concentration 18 (unit not given), replicate column 3 of 3
  Fluorescence competitive binding assay, OBP2 (raw fluorescence reading): 12788
SfurOBP2; ligand concentration 20 (unit not given), replicate column 1 of 3
  Fluorescence competitive binding assay, OBP2 (raw fluorescence reading): 13087
SfurOBP2; ligand concentration 20 (unit not given), replicate column 2 of 3
  Fluorescence competitive binding assay, OBP2 (raw fluorescence reading): 12766
SfurOBP2; ligand concentration 20 (unit not given), replicate column 3 of 3
  Fluorescence competitive binding assay, OBP2 (raw fluorescence reading): 13106
SfurOBP3; ligand concentration 2
  Fluorescence competitive binding assay, fluorescence intensity: 67563 and 64113 and 67485
SfurOBP3; ligand concentration 4
  Fluorescence competitive binding assay, fluorescence intensity: 70812 and 72838 and 74184
SfurOBP3; ligand concentration 6
  Fluorescence competitive binding assay, fluorescence intensity: 65634 and 64114 and 68940
SfurOBP3; ligand concentration 8
  Fluorescence competitive binding assay, fluorescence intensity: 62878 and 67093 and 68072
SfurOBP3; ligand concentration 10
  Fluorescence competitive binding assay, fluorescence intensity: 60134 and 69541 and 65795
SfurOBP3; ligand concentration 12
  Fluorescence competitive binding assay, fluorescence intensity: 68479 and 64625 and 78735
SfurOBP3; ligand concentration 14
  Fluorescence competitive binding assay, fluorescence intensity: 60140 and 40039 and 67409
SfurOBP3; ligand concentration 16
  Fluorescence competitive binding assay, fluorescence intensity: 38861 and 39269 and 45097
SfurOBP3; ligand concentration 18
  Fluorescence competitive binding assay, fluorescence intensity: 51398 and 59369 and 52474
SfurOBP3; ligand concentration 20
  Fluorescence competitive binding assay, fluorescence intensity: 68555 and 48789 and 43446
SfurOBP3; SfurOBP3, protein and 1-NPN both 2.0 µM, competitor 2-20 µM, read-out: IC50
  pIC50: < 4.70
